The target in experiment [1] is T1, activated human blood coagulation factor X (Homo sapiens, UniProt P00742).
T1 construct: purchased Enzyme Research Co
Kind of experiment: Determination of activity of inhibiting the activated blood coagulation factor X. In kind it is biochemical. The settings on record: for IC50: Table 2, same manner as Example 93, read-out: Activity of inhibiting activated blood coagulation factor X (pIC50) (converted). How it is done: 130 μl of 100 mM Tris-HCl buffer adjusted to pH 8.4 was added to 10 μl of an aqueous solution of a compound to be tested. Then 10 μl of a 0.5 unit/ml solution of activated human blood coagulation factor X (a product of Enzyme Research Co.) in Tris-HCl buffer hydrochloride of pH 8.4 was added to the resultant mixture. After the incubation at room temperature for 10 minutes, 50 μl of a solution of N-benzoyl-L-isoleucyl-L-glutamyl-glycyl-L-arginyl-p-nitroanilide hydrochloride (a product of Peptide Institute, Inc.) adjusted to 0.8 mM with Tris-HCl buffer (pH 8.4) was added thereto. The absorbance was determined and then the initial reaction rate was determined. A control was prepared in the same manner as that described above except that the solution of the compound to be tested was replaced with 10 μl of Tris-HCl buffer adjusted to pH 8.4.

In experiment [2] the test system is blood plasma. Kind of experiment: Determination of blood anticoagulating activity by prothrombin time (PT). In kind it is biochemical, human. Further details: key: -log of concentration doubling control PT. The settings on record: Table 2; negative logarithm of concentration that elongated PT of the control to twice as long; plasma of healthy people. On the procedure:
The blood anticoagulating activity was determined by a prothrombin time (PT) determination method. The PT was determined as follows: The blood was taken from healthy people. […] The blood plasma was separated by the centrifugation. 5 μl of DMSO solution containing a test compound was added to 45 μl of the blood plasma. After the incubation at room temperature for 2 minutes, a test tube containing the blood plasma solution was placed in Sysmex CA-3000 fully automatic blood coagulation determination device (a product of Toa Medical Electronics Co., Ltd), and incubated at 37° C. for 3 minutes. […] PT was automatically determined with the device. A sample containing 5 μl of DMSO in place of the solution of the test compound was used as the control. The negative logarithm (PT2) of the concentration of the test compound which elongated PT of the control to the twice as long was determined, and employed as the index of the blood anticoagulating activity.

The target of experiment [3] is T2, human thrombin (Homo sapiens, UniProt P00734).
T2 construct: human thrombin (a product of SIGMA Co.); purchased SIGMA Co
Kind of experiment: Determination of thrombin-inhibiting activity. In kind it is biochemical. The conditions noted are these: for IC50: Table 2, same manner as Example 94, read-out: Thrombin-inhibiting activity (pIC50) (converted). How it is done:
130 μl of 100 mM Tris-HCl buffer adjusted to pH 8.4 was added to 10 μl of an aqueous solution of a test compound. Then 10 μl of a solution of human thrombin (a product of SIGMA Co.) adjusted to 2 units/ml with Tris-HCl buffer of pH 8.4 was added to the resultant mixture. […] The absorbance was determined and then the initial reaction rate was determined. A control was prepared in the same manner as that described above except that the solution of the compound to be tested was replaced with 10 μl of tris hydrochloride buffer adjusted to pH 8.4.

T1 sequence (P00742 235-488 limits assumed): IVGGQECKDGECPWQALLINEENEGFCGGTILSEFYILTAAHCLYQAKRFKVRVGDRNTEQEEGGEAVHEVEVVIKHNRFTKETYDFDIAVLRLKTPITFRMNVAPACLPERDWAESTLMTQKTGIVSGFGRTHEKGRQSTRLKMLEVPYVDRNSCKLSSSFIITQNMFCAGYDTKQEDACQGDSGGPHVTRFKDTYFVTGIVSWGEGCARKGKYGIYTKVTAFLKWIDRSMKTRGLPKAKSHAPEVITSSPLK
T1 sequence (P00742 41-179 partner limits assumed): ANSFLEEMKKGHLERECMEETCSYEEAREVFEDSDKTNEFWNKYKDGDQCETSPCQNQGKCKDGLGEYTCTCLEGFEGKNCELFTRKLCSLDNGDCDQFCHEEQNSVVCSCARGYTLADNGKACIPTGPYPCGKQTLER

Regarding `N=C(N)c1ccc(C(=O)NCCOc2cccc(C(=N)N)c2)cc1.O=C(O)C(F)(F)F.O=C(O)C(F)(F)F` [Compound of Ex. 95, N-[2-(3-amidinophenoxy)ethyl]-4-amidinobenzamide bistrifluoroacetate], the IC50 in experiment [1] is 0.316 µM. Also, the “Blood anticoagulating activity (PT2)” value in experiment [2] came out at 5.9.
Regarding `N=C(N)c1cccc(OCCNC(=O)c2cccc(C(=N)N)c2)c1` [Compound of Ex. 96, N-[2-(3-amidinophenoxy)ethyl]-3-amidinobenzamide bistrifluoroacetate], the figures for the IC50 in experiment [1] and in experiment [3] were 1.58 µM and > 1000 µM, respectively.
As to `N=C(N)c1cccc(OCCNC(=O)c2ccc(CN)cc2)c1.O=C(O)C(F)(F)F.O=C(O)C(F)(F)F` [Compound of Ex. 98, N-[2-(3-amidinophenoxy)ethyl]-4-(aminomethyl)benzamide bistrifluoroacetate], the IC50 in experiment [1] was 3.16 µM; in experiment [3], 631 µM. Besides, in experiment [2], the “Blood anticoagulating activity (PT2)” value is given as <4.5.
Taken in the same sequence, the figures for `CC(=N)N1CCC(Oc2ccc(C(=O)NCCOc3cccc(C(=N)N)c3)cc2)CC1.O=C(O)C(F)(F)F.O=C(O)C(F)(F)F` [Compound of Ex. 99, N-[2-(3-amidinophenoxy)ethyl]-4-(1-acetimidoyl-4-piperidyloxy)benzamide bistrifluoroacetate] were 0.251 µM, 316 µM and 6.2.
On to `N=C(N)c1ccc(C(=O)N(CCOc2cccc(C(=N)N)c2)Cc2ccccc2)cc1` [Compound of Ex. 114, N-[2-(3-amidinophenoxy)ethyl]-N-phenylmethyl-4-amidinobenzamide bistrifluoroacetate], for which the results for the IC50 in experiment [1] and in experiment [3] were 0.0501 µM and 79.4 µM, respectively.
Consider `N=C(N)c1ccc(C(=O)N[C@@H](COc2cccc(C(=N)N)c2)Cc2ccccc2)cc1.O=C(O)C(F)(F)F.O=C(O)C(F)(F)F` [Compound of Ex. 117, N-[(1R)-2-(3-amidinophenoxy)-1-benzylethyl]-4-amidinobenzamide bistrifluoroacetate], for which the IC50 in experiment [1] was 0.0398 µM; in experiment [3], 251 µM. Moreover, in experiment [2], the “Blood anticoagulating activity (PT2)” value amounted to 6.7.
Consider `N=C(N)c1ccc(C(=O)N[C@@H](COc2cccc(C(=N)N)c2)CC(=O)O)cc1` [Compound of Ex. 119, (3R)-3-(4-amidinobenzoylamino)-4-(3-amidinophenoxy)butanoic acid bistrifluoroacetate], for which the values for the IC50 in experiment [1] and in experiment [3] were 0.0251 µM and > 1000 µM, respectively.
For the molecule `N=C(N)c1ccc(C(=O)N[C@H](CCC(=O)O)COc2cccc(C(=N)N)c2)cc1` [Compound of Ex. 121, (4R)-4-(4-amidinobenzoylamino)-5-(3-amidinophenoxy)pentanoic acid bistrifluoroacetate], the IC50 in experiment [1] is 0.0501 µM; in experiment [3], > 1000 µM.
Turning to `N=C(N)c1ccc(C(=O)NCCCOc2cccc(C(=N)N)c2)cc1.O=C(O)C(F)(F)F.O=C(O)C(F)(F)F` [Compound of Ex. 122, N-[3-(3-amidinophenoxy)propyl]-4-amidinobenzamide bistrifluoroacetate], the IC50 was 0.501 µM in experiment [1] and > 1000 µM in experiment [3]. In experiment [2], the “Blood anticoagulating activity (PT2)” value came out at 4.5.
As for `N=C(N)c1ccc(C(=O)NCCSc2cccc(C(=N)N)c2)cc1.O=C(O)C(F)(F)F.O=C(O)C(F)(F)F` [Compound of Ex. 143, N-[2-(3-amidinophenylthio)ethyl]-4-amidinobenzamide bistrifluoroacetate], in experiment [1], the IC50 was 0.501 µM. The “Blood anticoagulating activity (PT2)” value in experiment [2] amounted to 5.3.
In the same order, the values of `N=C(N)c1ccc(C(=O)NCCCc2cccc(C(=N)N)c2)cc1.O=C(O)C(F)(F)F.O=C(O)C(F)(F)F` [Compound of Ex. 144, N-[3-(3-amidinophenyl)propyl]-4-amidinobenzamide bistrifluoroacetate] are 1.58 µM and 5.
Turning to `N=C(N)c1ccc(C(=O)NCCOc2cc(C(=N)N)ccc2CC(=O)C(=O)O)cc1` [Compound of Ex. 147, bistrifluoroacetate], the IC50 in experiment [1] was 0.0398 µM; in experiment [3], 20 µM. For the same molecule, the “Blood anticoagulating activity (PT2)” value in experiment [2] is reported as 6.5.
In the same order, the values of `N=C(N)c1cccc(OC[C@H](Cc2ccc(OC3CCNCC3)cc2)NS(=O)(=O)c2ccccc2)c1.O=C(O)C(F)(F)F.O=C(O)C(F)(F)F` [Compound of Ex. 154, 3-[(2S)-2-(benzenesulfonylamino)-3-[4-(4-piperidyloxy)phenyl]propoxy]benzamidine bistrifluoroacetate] are 1.58 µM, 79.4 µM and 5.1.
In the same order, the values of `CC(=N)N1CCC(Oc2ccc(C[C@@H](COc3cccc(C(=N)N)c3)NS(=O)(=O)c3ccccc3)cc2)CC1.O=C(O)C(F)(F)F.O=C(O)C(F)(F)F` [Compound of Ex. 158, 3-[(2S)-2-(benzenesulfonylamino)-3-[4-(1-acetimidoyl-4-piperidyloxy)phenyl]propoxy]benzamidine bistrifluoroacetate] are 0.158 µM, 50.1 µM and 6.2.
Take `CCS(=O)(=O)N[C@H](COc1cccc(C(=N)N)c1)Cc1ccc(OC2CCN(C(C)=N)CC2)cc1` [Compound of Ex. 160, 3-[(2S)-2-(ethanesulfonylamino)-3-[4-(1-acetimidoyl-4-piperidyloxy)phenyl]propoxy]benzamidine bistrifluoroacetate]: the IC50 is 0.316 µM in experiment [1] and 158 µM in experiment [3].
In the same order, the values of `CC(=N)N1CCC(Oc2ccc(C[C@@H](COc3cccc(C(=N)N)c3)NS(=O)(=O)c3ccc4ccccc4c3)cc2)CC1` [Compound of Ex. 162, 3-[(2S)-2-(2-naphthalenesulfonylamino)-3-[4-(1-acetimidoyl-4-piperidyloxy)phenyl]propoxy]benzamidine bistrifluoroacetate] are 0.251 µM and 39.8 µM.
As for `CC(=N)N1CCC(Cc2ccc(C[C@@H](COc3cccc(C(=N)N)c3)NS(=O)(=O)c3ccccc3)cc2)CC1.O=C(O)C(F)(F)F.O=C(O)C(F)(F)F` [Compound of Ex. 165, 3-[(2S)-2-(benzenesulfonylamino)-3-[4-[(1-acetimidoyl-4-piperidyl)methyl]phenyl]propoxy]benzamidine bistrifluoroacetate], the values for the IC50 in experiment [1] and in experiment [3] were 0.2 µM and 100 µM, respectively. Further, the “Blood anticoagulating activity (PT2)” value in experiment [2] is 6.
`N=C(N)c1cccc(OC[C@H](Cc2ccc(OC3CCNCC3)cc2)NS(=O)(=O)c2ccc(C(=O)O)cc2)c1.O=C(O)C(F)(F)F.O=C(O)C(F)(F)F` [Compound of Ex. 167, 4-[(2S)-1-[4-(4-piperidyloxy)phenyl]-3-(3-amidinophenoxy)-2-propylsulfamoyl]benzoic acid bistrifluoroacetate]: the IC50 in experiment [1] is 0.501 µM; in experiment [3], 126 µM. Besides, the “Blood anticoagulating activity (PT2)” value in experiment [2] is listed as 5.
Regarding `CC(=N)N1CCC(Oc2ccc(C[C@@H](COc3cccc(C(=N)N)c3)NS(=O)(=O)c3ccc(C(=O)O)cc3)cc2)CC1.O=C(O)C(F)(F)F.O=C(O)C(F)(F)F` [Compound of Ex. 168, 4-[(2S)-1-[4-(1-acetimidoyl-4-piperidyloxy)phenyl]-3-(3-amidinophenoxy)-2-propylsulfamoyl]benzoic acid bistrifluoroacetate], the IC50 in experiment [1] was 0.0316 µM; in experiment [3] it was 79.4 µM. In addition, the “Blood anticoagulating activity (PT2)” value in experiment [2] was determined as 6.2.
Regarding “N-[2-(3-amidinophenoxy)ethyl]-1-(4-pyridyl)piperidine-4-carboxyamide bistrifluoroacetate [Compound of Ex. 24]”, in experiment [1] (Table 1, negative logarithm of concentration inhibiting 50% of initial rate, Tris-HCl pH 8.4, room temperature), the “Activity of inhibiting activated blood coagulation factor X (pIC50)” value is 6.5. The “Thrombin-inhibiting activity (pIC50)” value in experiment [3] (Table 1, negative logarithm of concentration inhibiting 50% of initial rate, substrate S-2238, Tris-HCl pH 8.4) is 3.2.

The record behind these values is patent publication US7396844B1, “Benzamidine derivatives” (Ajinomoto Co., Inc., priority 1997, dated 2008).
